Assay results as given in the supplement of paper PMC5908809.

How the values were obtained:
[1] = test system: normal NK cells expanded with K562-aAPC; experiment: percent inhibition of viability; higher = more inhibition; details: 72 h, IL-2 2.5 ng/mL
Experimental: (§1)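 Drug sensitivity and resistance testing on K562-aAPC-expanded normal NK cells: 5 concentrations (10-fold steps over a 10,000-fold range), 72 h at 37 °C, viability by CellTiter-Glo normalised to DMSO and benzethonium chloride controls; DSS from the fitted curve.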

DERL-7 (IL-2 2.5 ng/mL) [2] = experiment: as above; details: 72 h
IMC-1 (IL-2 20 ng/mL) [3] = experiment: as above; details: 72 h
KAI3 (IL-2 2.5 ng/mL) [4] = experiment: as above; details: 72 h
KHYG-1 (IL-2 2.5 ng/mL) [5] = experiment: as above; details: 72 h
NK-92 (IL-2 2.5 ng/mL) [6] = experiment: as above; details: 72 h
NK-YS (IL-2 2.5 ng/mL) [7] = experiment: as above; details: 72 h
NKL (IL-2 2.5 ng/mL) [8] = experiment: as above; details: 72 h
SNK-6 (IL-2 2.5 ng/mL) [9] = experiment: as above; details: 72 h
YT (IL-2 2.5 ng/mL) [10] = experiment: as above; details: 72 h
[11] = test system: normal primary NK cells, pool 1 (3 donors) (IL-2 2.5 ng/mL); experiment: as above; details: 72 h
[12] = test system: normal primary NK cells, pool 1 (3 donors), resting (IL-2 0 ng/mL); experiment: as above; details: 72 h
[13] = test system: normal primary NK cells, pool 2 (3 donors) (IL-2 2.5 ng/mL); experiment: as above; details: 72 h
[14] = test system: normal primary NK cells, pool 3 (3 donors) (IL-2 2.5 ng/mL); experiment: as above; details: 72 h
[15] = test system: normal NK cells expanded with K562-aAPC; experiment: drug sensitivity score (DSS) (DSS units); higher = more sensitive; extreme values may be limits of the assay; details: 72 h; IL-2 2.5 ng/mL
Experimental: as §1

DERL-7 (IL-2 2.5 ng/mL) [16] = experiment: as above; details: 72 h
IMC-1 (IL-2 20 ng/mL) [17] = experiment: as above; details: 72 h
KAI3 (IL-2 2.5 ng/mL) [18] = experiment: as above; details: 72 h
KHYG-1 (IL-2 2.5 ng/mL) [19] = experiment: as above; details: 72 h
NK-92 (IL-2 2.5 ng/mL) [20] = experiment: as above; details: 72 h
NK-YS (IL-2 2.5 ng/mL) [21] = experiment: as above; details: 72 h
NKL (IL-2 2.5 ng/mL) [22] = experiment: as above; details: 72 h
SNK-6 (IL-2 2.5 ng/mL) [23] = experiment: as above; details: 72 h
YT (IL-2 2.5 ng/mL) [24] = experiment: as above; details: 72 h
[25] = test system: normal primary NK cells, pool 1 (3 donors) (IL-2 2.5 ng/mL); experiment: as above; details: 72 h
[26] = test system: normal primary NK cells, pool 1 (3 donors), resting (IL-2 0 ng/mL); experiment: as above; details: 72 h
[27] = test system: normal primary NK cells, pool 2 (3 donors) (IL-2 2.5 ng/mL); experiment: as above; details: 72 h
[28] = test system: normal primary NK cells, pool 3 (3 donors) (IL-2 2.5 ng/mL); experiment: as above; details: 72 h

C=CC[C@@H]1/C=C(\C)C[C@H](C)C[C@H](OC)[C@H]2O[C@@](O)(C(=O)C(=O)N3CCCC[C@H]3C(=O)O[C@H](/C(C)=C/[C@@H]3CC[C@@H](O)[C@H](OC)C3)[C@H](C)[C@@H](O)CC1=O)[C@H](C)C[C@@H]2OC [Tacrolimus] (max concentration tested 10000 nM)
percent inhibition of viability [%]
Details	1 nM	10 nM	100 nM	1000 nM	10000 nM
DERL-7 (IL-2 2.5 ng/mL) [2]	-6.89	-0.55	-1.59	-6.35	23
IMC-1 (IL-2 20 ng/mL) [3]	1.61	-1.68	-1.5	-2.11	23.3
KAI3 (IL-2 2.5 ng/mL) [4]	-0.56	6.96	5.19	-3.38	1.06
KHYG-1 (IL-2 2.5 ng/mL) [5]	-2.54	-4.56	1.9	0.69	13.5
NK-92 (IL-2 2.5 ng/mL) [6]	-18.9	-10.1	-13.5	5.35	30.1
NK-YS (IL-2 2.5 ng/mL) [7]	1.38	-3.09	1.86	5.94	19.8
NKL (IL-2 2.5 ng/mL) [8]	-8.22	-6.4	-3.18	8.38	3.72
SNK-6 (IL-2 2.5 ng/mL) [9]	6.17	-4.96	-13.1	-0.42	16.6
YT (IL-2 2.5 ng/mL) [10]	0.78	-1.87	1.16	5.77	24.4
[1]	-12.2	-4.97	-9.06	-4.26	-5.39
[11]	-2.12	0.6	4.89	4.45	43.2
[12]	-2.76	-12.4	9.06	17.2	71.7
[13]	6.61	4.19	3.62	3.15	28.9
[14]	10.7	1.86	-0.29	-2.25	1.84

Details	drug sensitivity score
DERL-7 (IL-2 2.5 ng/mL) [16]	0.55
IMC-1 (IL-2 20 ng/mL) [17]	0.7
KAI3 (IL-2 2.5 ng/mL) [18]	0
KHYG-1 (IL-2 2.5 ng/mL) [19]	0.17
NK-92 (IL-2 2.5 ng/mL) [20]	2.16
NK-YS (IL-2 2.5 ng/mL) [21]	1.16
NKL (IL-2 2.5 ng/mL) [22]	0
SNK-6 (IL-2 2.5 ng/mL) [23]	0.32
YT (IL-2 2.5 ng/mL) [24]	1.73
[15]	0
[25]	2.93
[26]	6.54
[27]	1.72
[28]	0

Oc1ncc(N(CCCl)CCCl)c(O)n1 [Uracil mustard] (max concentration tested 10000 nM)
percent inhibition of viability [%]
Details	DERL-7 (IL-2 2.5 ng/mL) [2]	KAI3 (IL-2 2.5 ng/mL) [4]	KHYG-1 (IL-2 2.5 ng/mL) [5]	NK-92 (IL-2 2.5 ng/mL) [6]	NK-YS (IL-2 2.5 ng/mL) [7]	NKL (IL-2 2.5 ng/mL) [8]	SNK-6 (IL-2 2.5 ng/mL) [9]	YT (IL-2 2.5 ng/mL) [10]	[11]	[12]
1 nM	-3.55	-2.41	-4.85	-13	-4.38	-13	-5.93	-3.44	1.1	1.93
10 nM	-2.92	-4.28	-7.99	2.85	-2.31	-8.44	-12.3	-2.84	14.8	12.8
100 nM	0.29	4.07	-5.32	-5.3	-0.87	1.52	-16.6	-1.58	6.41	14.2
1000 nM	1.68	10.1	0.5	11.1	8.35	7.38	-20.1	6.78	7.51	7.77
10000 nM	-8.73	23.1	6.88	19.6	16.4	14.1	-11.1	8.3	12.4	16.2

Details	drug sensitivity score
DERL-7 (IL-2 2.5 ng/mL) [16]	0
KAI3 (IL-2 2.5 ng/mL) [18]	1.5
KHYG-1 (IL-2 2.5 ng/mL) [19]	0
NK-92 (IL-2 2.5 ng/mL) [20]	1.65
NK-YS (IL-2 2.5 ng/mL) [21]	1.03
NKL (IL-2 2.5 ng/mL) [22]	0.45
SNK-6 (IL-2 2.5 ng/mL) [23]	0
YT (IL-2 2.5 ng/mL) [24]	0
[25]	0
[26]	1.83

Oc1ncc(N(CCCl)CCCl)c(O)n1 [Uramustine] (max concentration tested 10000 nM)
percent inhibition of viability [%]
Details	1 nM	10 nM	100 nM	1000 nM	10000 nM
IMC-1 (IL-2 20 ng/mL) [3]	-9.69	0.32	0.64	0.1	6.18
[1]	-9.68	-7.07	-4	3.8	14.6
[13]	-0.88	5.22	7.92	6.65	14.2
[14]	-4.89	6.36	6.72	4.62	8.5

Details	drug sensitivity score
IMC-1 (IL-2 20 ng/mL) [17]	0
[15]	0.53
[27]	0.26
[28]	0

CN(C)C(=O)c1cc2cnc(Nc3ccc(N4CCNCC4)cn3)nc2n1C1CCCC1 [Ribociclib] (max concentration tested 10000 nM)
percent inhibition of viability [%]
Details	1 nM	10 nM	100 nM	1000 nM	10000 nM
IMC-1 (IL-2 20 ng/mL) [3]	-7.57	-0.52	-5.29	0.27	7.32
[1]	-3.33	-2.59	0.08	20.6	22.7
[13]	-4.92	-2.8	8.5	5.64	48.2
[14]	-3.67	-4.43	6	1.54	30.9

Details	drug sensitivity score
IMC-1 (IL-2 20 ng/mL) [17]	0
[15]	3.05
[27]	3.47
[28]	1.58

O=C(O)C(=O)O.[NH-][C@@H]1CCCC[C@H]1[NH-].[Pt+2] [Oxaliplatin] (max concentration tested 100000 nM)
percent inhibition of viability [%]
Details	10 nM	100 nM	1000 nM	10000 nM	100000 nM
IMC-1 (IL-2 20 ng/mL) [3]	-0.91	5.5	6.16	51.1	101
[1]	0.69	4.04	21.3	86.9	101
[13]	-2.45	-3.26	15.2	44.2	93.1
[14]	-8.94	-0.68	20.4	44	97.6

Details	drug sensitivity score
IMC-1 (IL-2 20 ng/mL) [17]	11.6
[15]	18.5
[27]	10.7
[28]	11.3

CN(C)C(=O)c1cc2cnc(Nc3ccc(N4CCNCC4)cn3)nc2n1C1CCCC1 [NVP-LEE011] (max concentration tested 10000 nM)
percent inhibition of viability [%]
Details	DERL-7 (IL-2 2.5 ng/mL) [2]	KAI3 (IL-2 2.5 ng/mL) [4]	KHYG-1 (IL-2 2.5 ng/mL) [5]	NK-92 (IL-2 2.5 ng/mL) [6]	NK-YS (IL-2 2.5 ng/mL) [7]	NKL (IL-2 2.5 ng/mL) [8]	SNK-6 (IL-2 2.5 ng/mL) [9]	YT (IL-2 2.5 ng/mL) [10]	[11]	[12]
1 nM	-3.18	-3.87	-4.23	-9.54	-2.35	-12.3	-8.9	-3.41	4.32	7.64
10 nM	4.13	1.07	0.91	-16.1	-0.02	-11.2	3.64	-2.71	8.46	12.1
100 nM	1.76	-4.85	-1.06	-4.22	5.18	-15	-2.64	-0.92	8.7	17.7
1000 nM	11.2	4.66	37.5	15.8	22.1	-6.48	12.5	9.6	6.05	14.8
10000 nM	41.6	29.2	81.3	20.8	48	47.9	19.8	42.3	51.8	51.6

Details	drug sensitivity score
DERL-7 (IL-2 2.5 ng/mL) [16]	3.81
KAI3 (IL-2 2.5 ng/mL) [18]	2
KHYG-1 (IL-2 2.5 ng/mL) [19]	9.33
NK-92 (IL-2 2.5 ng/mL) [20]	2.18
NK-YS (IL-2 2.5 ng/mL) [21]	4.9
NKL (IL-2 2.5 ng/mL) [22]	2.07
SNK-6 (IL-2 2.5 ng/mL) [23]	1.78
YT (IL-2 2.5 ng/mL) [24]	3.67
[25]	3.77
[26]	6.2

CCN(CC)CCCC(C)Nc1c2ccc(Cl)cc2nc2ccc(OC)cc12 (stereo not drawn) [Mepacrine] (max concentration tested 50000 nM)
percent inhibition of viability [%]
Details	5 nM	50 nM	500 nM	5000 nM	50000 nM
IMC-1 (IL-2 20 ng/mL) [3]	-0.62	-1.1	2.08	100	101
[1]	-2.84	-3.46	-4.79	100	101
[13]	-13.9	-3.31	9.39	98	101
[14]	-11.7	0.46	1.96	98.8	101

Details	drug sensitivity score
IMC-1 (IL-2 20 ng/mL) [17]	18.2
[15]	17.6
[27]	19.4
[28]	18.1

CC1(C)CCC(CN2CCN(c3ccc(C(=O)NS(=O)(=O)c4ccc(NCC5CCOCC5)c([N+](=O)[O-])c4)c(Oc4cnc5[nH]ccc5c4)c3)CC2)=C(c2ccc(Cl)cc2)C1 [Venetoclax] (max concentration tested 1000 nM)
percent inhibition of viability [%]
Details	0.1 nM	1 nM	10 nM	100 nM	1000 nM
IMC-1 (IL-2 20 ng/mL) [3]	-3.1	2.12	-1.24	-0.5	5.01
[1]	3.87	-7.3	-4.26	-4.09	18.9
[13]	-15.6	-3.12	0.73	7.62	31.3
[14]	-10.2	-7.52	-5.3	1.76	14.7

Details	drug sensitivity score
IMC-1 (IL-2 20 ng/mL) [17]	0
[15]	0.35
[27]	2.56
[28]	0.37

CC(=O)N(O)CCCCCNC(=O)CCC(=O)N(O)CCCCCNC(=O)CCC(=O)N(O)CCCCCN [Deferoxamine] (max concentration tested 10000 nM)
percent inhibition of viability [%]
Details	1 nM	10 nM	100 nM	1000 nM	10000 nM
IMC-1 (IL-2 20 ng/mL) [3]	-6.25	-3.2	-4.14	-0.7	97.2
[1]	-3.82	-8.67	-5.64	22.8	86.1
[13]	-2.8	5.46	3.49	11.1	42.7
[14]	-1.79	6.03	10.4	16.1	53.2

Details	drug sensitivity score
IMC-1 (IL-2 20 ng/mL) [17]	5.37
[15]	8.23
[27]	3.84
[28]	4.59
